Remaining activity data for 29 compounds are collected here from article PMC8286840, “Identifying SARS-CoV-2 antiviral compounds by screening for small molecule inhibitors of Nsp3 papain-like protease” (Biochemical Journal, 2021).

Experiment [1] has as its target T1, SARS-CoV-2 PLpro (nsp3 1564–1878) (Severe acute respiratory syndrome coronavirus 2, UniProt P0DTD1). Description: biochemical. Also noted: FRET-quenched peptide (Pro3) cleavage by PLpro, 10 min pre-incubation, slope over 20 min, normalised to no-compound control. The conditions noted are these: low concentration screen, read-out: % of control remaining.
In experiment [2] the target is T1, SARS-CoV-2 PLpro (nsp3 1564–1878). Description: biochemical. Further details: FRET-quenched peptide (Pro3) cleavage by PLpro, 10 min pre-incubation, slope over 20 min, normalised to no-compound control. The settings on record: high concentration screen, read-out: % of control remaining.

Where a name gives a salt, the structure may show the parent alone. Read-outs that look alike come from different tables or passages of the source.

As for `Oc1cc(O)c2c(c1)O[C@H](c1cc(O)c(O)c(O)c1)[C@H](O)C2` [Epigallocatechin], in experiment [1] (Well no.=3277), the remaining activity at 1.25 µM was determined as 102%. In addition, the remaining activity at 3.75 µM in experiment [2] (Well no.=3277) was determined as 101%.

With `NC1=NCC2c3ccccc3Cc3ccccc3N12` (centres unmarked) [Epinastine], the remaining activity at 1.25 µM in experiment [1] (Well no.=6611) was 96%. For the same compound, in experiment [2] (Well no.=6611), the remaining activity at 3.75 µM came to 94.8%.

Turning to `CNC[C@H](O)c1ccc(O)c(O)c1` [Epinephrine bitartrate (Adrenalinium)], in experiment [1] (Well no.=5254), the remaining activity at 1.25 µM amounted to 105%. For the same compound, the remaining activity at 3.75 µM in experiment [2] (Well no.=5254) turned out to be 101%.

For the compound `COc1cccc2c1C(=O)c1c(O)c3c(c(O)c1C2=O)C[C@@](O)(C(=O)CO)C[C@@H]3O[C@H]1C[C@H](N)[C@@H](O)[C@H](C)O1` [Epirubicin HCl], the remaining activity at 1.25 µM in experiment [1] (Well no.=5141) amounted to 106%. Besides, the remaining activity at 3.75 µM in experiment [2] (Well no.=5141) turned out to be 107%.

Regarding `COC(=O)[C@@H]1CC2=CC(=O)CC[C@]2(C)[C@@]23O[C@@H]2C[C@@]2(C)[C@@H](CC[C@@]24CCC(=O)O4)[C@H]13` [Eplerenone], the remaining activity at 1.25 µM in experiment [1] (Well no.=5343) was 97.5%. In addition, in experiment [2] (Well no.=5343), the remaining activity at 3.75 µM was 96.5%.

`C/C(=C\c1csc(C)n1)[C@@H]1C[C@@H]2O[C@@H]2CCC[C@H](C)[C@H](O)[C@@H](C)C(=O)C(C)(C)[C@@H](O)CC(=O)O1` [Epothilone A]: the remaining activity at 1.25 µM in experiment [1] (Well no.=5157) was 95.3%. The remaining activity at 3.75 µM in experiment [2] (Well no.=5157) turned out to be 93.4%.

As to `CCCCCCCC[C@H]1O[C@H]1CCCCCCCC(=O)O` [Epoxy-oleic acid], in experiment [1] (Well no.=4569), the remaining activity at 1.25 µM is 96.6%. Further, in experiment [2] (Well no.=4569), the remaining activity at 3.75 µM worked out at 103%.

With `CCCCc1ncc(/C=C(\Cc2cccs2)C(=O)O)n1Cc1ccc(C(=O)O)cc1` [Eprosartan (mesylate)], the remaining activity at 1.25 µM in experiment [1] (Well no.=8191) amounted to 105%. In addition, the remaining activity at 3.75 µM in experiment [2] (Well no.=8191) turned out to be 105%.

Turning to `CCCCc1ncc(/C=C(\Cc2cccs2)C(=O)O)n1Cc1ccc(C(=O)O)cc1` [Eprosartan mesylate], the remaining activity at 1.25 µM in experiment [1] (Well no.=1882) was determined as 98.4%. In addition, in experiment [2] (Well no.=1882), the remaining activity at 3.75 µM was 99.1%.

For `Oc1ccc([C@H]2COc3cc(O)ccc3C2)cc1` [Equol], the remaining activity at 1.25 µM in experiment [1] (Well no.=5252) worked out at 99.7%. For the same compound, in experiment [2] (Well no.=5252), the remaining activity at 3.75 µM was determined as 99.3%.

Take `CCOc1ccccc1-n1c(C(C)N2CCN(C(=O)COc3ccc(Cl)cc3)CC2)nc2ccccc2c1=O` (centres unmarked) [Erastin]: in experiment [1] (Well no.=6732), the remaining activity at 1.25 µM stood at 98.2%. Moreover, in experiment [2] (Well no.=6732), the remaining activity at 3.75 µM was 96.5%.

As for `CC(C)[C@@]1(NC(=O)[C@@H]2C=C3c4cccc5[nH]cc(c45)C[C@H]3N(C)C2)O[C@@]2(O)[C@@H]3CCCN3C(=O)[C@H](Cc3ccccc3)N2C1=O` [Ergocristine], the remaining activity at 1.25 µM in experiment [1] (Well no.=561) was 105%. For the same compound, the remaining activity at 3.75 µM in experiment [2] (Well no.=561) turned out to be 102%.

In the case of `CC(C)[C@@H](C)/C=C/[C@@H](C)[C@H]1CC[C@H]2C3=CC=C4C[C@@H](O)CC[C@]4(C)[C@H]3CC[C@]12C` [Ergosterol], in experiment [1] (Well no.=5194), the remaining activity at 1.25 µM turned out to be 102%. The remaining activity at 3.75 µM in experiment [2] (Well no.=5194) stood at 101%.

With `CN1C[C@H](C(=O)N[C@]2(C)O[C@@]3(O)[C@@H]4CCCN4C(=O)[C@H](Cc4ccccc4)N3C2=O)C=C2c3cccc4[nH]cc(c34)C[C@H]21` [Ergotamine], the remaining activity at 1.25 µM in experiment [1] (Well no.=1726) was 99.5%. In addition, the remaining activity at 3.75 µM in experiment [2] (Well no.=1726) stood at 98.3%.

For the compound `C[N+](C)(C)[C@@H](Cc1c[nH]c(=S)[nH]1)C(=O)[O-]` [Ergothioneine], in experiment [1] (Well no.=1612), the remaining activity at 1.25 µM is 100%. Moreover, the remaining activity at 3.75 µM in experiment [2] (Well no.=1612) is 98.8%.

With `C[C@@H]1O[C@@H](OC[C@H]2O[C@@H](Oc3cc(O)c4c(c3)O[C@H](c3ccc(O)c(O)c3)CC4=O)[C@H](O)[C@@H](O)[C@@H]2O)[C@H](O)[C@H](O)[C@H]1O` [Eriocitrin], the remaining activity at 1.25 µM in experiment [1] (Well no.=3257) was 98.6%. Further, in experiment [2] (Well no.=3257), the remaining activity at 3.75 µM was 97.1%.

With `O=C1C[C@@H](c2ccc(O)c(O)c2)Oc2cc(O[C@@H]3O[C@H](CO)[C@@H](O)[C@H](O)[C@H]3O)cc(O)c21` [Eriodictyol-7-O-glucoside], in experiment [1] (Well no.=3261), the remaining activity at 1.25 µM amounted to 96.6%. Further, the remaining activity at 3.75 µM in experiment [2] (Well no.=3261) is 95.5%.

As for `O=C1C[C@@H](c2ccc(O)c(O)c2)Oc2cc(O)cc(O)c21` [Eriodictyol], the remaining activity at 1.25 µM in experiment [1] (Well no.=3259) is 104%. Moreover, the remaining activity at 3.75 µM in experiment [2] (Well no.=3259) came out at 103%.

`CCOC(=O)CCC(=O)O[C@H]1[C@H](O[C@@H]2[C@@H](C)[C@H](O[C@H]3C[C@@](C)(OC)[C@@H](O)[C@H](C)O3)[C@@H](C)C(=O)O[C@H](CC)[C@@](C)(O)[C@H](O)[C@@H](C)C(=O)[C@H](C)C[C@@]2(C)O)O[C@H](C)C[C@@H]1N(C)C` [Erythromycin Ethylsuccinate]: the remaining activity at 1.25 µM in experiment [1] (Well no.=5126) worked out at 100%. For the same compound, the remaining activity at 3.75 µM in experiment [2] (Well no.=5126) is 102%.

With `CN(C)CCC[C@@]1(c2ccc(F)cc2)OCc2cc(C#N)ccc21` [Escitalopram Oxalate], the remaining activity at 1.25 µM in experiment [1] (Well no.=5128) was 109%. Also, in experiment [2] (Well no.=5128), the remaining activity at 3.75 µM is 107%.

For `CN(C)CCC[C@@]1(c2ccc(F)cc2)OCc2cc(C#N)ccc21` [Escitalopram], in experiment [1] (Well no.=1880), the remaining activity at 1.25 µM was 95.4%. Moreover, the remaining activity at 3.75 µM in experiment [2] (Well no.=1880) was 94.3%.

Consider `O=c1ccc2cc(O)c(O)cc2o1` [Esculetin], for which the remaining activity at 1.25 µM in experiment [1] (Well no.=3988) was 101%. Besides, the remaining activity at 3.75 µM in experiment [2] (Well no.=3988) is 98.6%.

For the compound `COC(=O)CCc1ccc(OCC(O)CNC(C)C)cc1` (centres unmarked) [Esmolol (hydrochloride)], the remaining activity at 1.25 µM in experiment [1] (Well no.=6651) was 105%. For the same compound, in experiment [2] (Well no.=6651), the remaining activity at 3.75 µM was 107%.

On to `COC(=O)CCc1ccc(OCC(O)CNC(C)C)cc1` (centres unmarked) [Esmolol], for which the remaining activity at 1.25 µM in experiment [1] (Well no.=2286) was 96.3%. Moreover, the remaining activity at 3.75 µM in experiment [2] (Well no.=2286) was 96.8%.

With `COc1ccc2[nH]c([S@@+]([O-])Cc3ncc(C)c(OC)c3C)nc2c1` [Esomeprazole], in experiment [1] (Well no.=2032), the remaining activity at 1.25 µM was found to be 108%. Moreover, the remaining activity at 3.75 µM in experiment [2] (Well no.=2032) worked out at 106%.

As for `C[C@]12CC[C@@H]3c4ccc(OC(=O)c5ccccc5)cc4CC[C@H]3[C@@H]1CC[C@@H]2O` [Estradiol Benzoate], the remaining activity at 1.25 µM in experiment [1] (Well no.=5134) stood at 105%. Moreover, the remaining activity at 3.75 µM in experiment [2] (Well no.=5134) worked out at 104%.

Take `CCCCC(=O)O[C@H]1CC[C@H]2[C@@H]3CCc4cc(O)ccc4[C@H]3CC[C@]12C` [Estradiol valerate]: the remaining activity at 1.25 µM in experiment [1] (Well no.=5365) turned out to be 95.5%. Further, the remaining activity at 3.75 µM in experiment [2] (Well no.=5365) was determined as 99.5%.

Regarding `C[C@]12CC[C@@H]3c4ccc(O)cc4CC[C@H]3[C@@H]1CC[C@@H]2O` [Estradiol], the results for the remaining activity at 1.25 µM in experiment [1] (Well no.=2034) and in experiment [1] (Well no.=6449) were 99.3% and 98.6%, respectively. In addition, the remaining activity at 3.75 µM was determined as 96.6% in experiment [2] (Well no.=2034) and 101% in experiment [2] (Well no.=6449).

As for `C[C@]12CC[C@@H]3c4ccc(O)cc4CC[C@H]3[C@@H]1C[C@@H](O)[C@@H]2O` [Estriol], the remaining activity at 1.25 µM in experiment [1] (Well no.=2036) is 105%; in experiment [1] (Well no.=6489) it was 104%. The values for the remaining activity at 3.75 µM in experiment [2] (Well no.=2036) and in experiment [2] (Well no.=6489) were 104% and 108%, respectively.
